Reference: ChEMBL document CHEMBL4118236, “Click Chemistry-Based Discovery of [3-Hydroxy-5-(1 H-1,2,3-triazol-4-yl)picolinoyl]glycines as Orally Active Hypoxia-Inducing Factor Prolyl Hydroxylase Inhibitors with Favorable Safety Profiles for the Treatment of Anemia” (J Med Chem, 2018)
In brackets after ≈: the same amount, converted by molar mass. One block for each compound: values may come before it.

How the values were obtained:
Mus musculus [1] = assay: Antianemic activity in C57BL/6 mouse cisplatin-induced anemia model assessed as increase in hemoglobin level at 25 mg/kg, po administered every other day for 30 days relative to control; assay type: functional
Mus musculus [2] = assay: Acute toxicity in C57BL/6 mouse assessed as change in liver to body weight ratio at 25 to 200 mg/kg, po administered every other day for 14 days measured on day 14 post last dose; assay type: organism-based; settings: in vivo, 336 h
[3] = Therapeutic index, ratio of compound effect for toxicity in C57BL/6 mouse to compound effect for upregulation of plasma EPO level in C57BL/6 mouse; assay type: organism-based; settings: read-out: TI
HUVEC = assay: Cytotoxicity against HUVEC assessed as reduction in cell viability at 10 to 100 uM after 72 hrs by MTT assay; assay type: cell-based; settings: human
[4] = Dissociation constant, pKa of the compound by potentiometric titration method; assay type: physicochemical
Mus musculus [5] = assay: Acute toxicity in C57BL/6 mouse assessed as effect on growth at 25 to 200 mg/kg, po administered every other day for 14 days; assay type: organism-based; settings: in vivo, 336 h
[6] = Clearance in Sprague-Dawley rat at 10 mg/kg, po by LC-MS/MS; assay type: ADME, organism-based; settings: in vivo
Mus musculus [7] = assay: Nephrotoxicity in C57BL/6 mouse at 25 to 200 mg/kg, po administered every other day for 14 days measured on day 14 post last dose by H and E staining based assay; assay type: toxicity, organism-based; settings: in vivo, 336 h
[8] = Half life in Sprague-Dawley rat at 10 mg/kg, po by LC-MS/MS; assay type: ADME, organism-based; settings: in vivo
Mus musculus [9] = assay: Toxicity in C57BL/6 mouse assessed as damage in spleen at 25 to 200 mg/kg, po administered every other day for 14 days measured on day 14 post last dose by H and E staining based assay; assay type: organism-based; settings: in vivo, 336 h
[10] = Oral bioavailability in Sprague-Dawley rat at 10 mg/kg by LC-MS/MS; assay type: ADME, organism-based; settings: in vivo
Egl nine homolog 1 [11] = target: T1, Egl nine homolog 1 (Homo sapiens, UniProt Q9GZT9)
T1 sequence (Q9GZT9 whole entry): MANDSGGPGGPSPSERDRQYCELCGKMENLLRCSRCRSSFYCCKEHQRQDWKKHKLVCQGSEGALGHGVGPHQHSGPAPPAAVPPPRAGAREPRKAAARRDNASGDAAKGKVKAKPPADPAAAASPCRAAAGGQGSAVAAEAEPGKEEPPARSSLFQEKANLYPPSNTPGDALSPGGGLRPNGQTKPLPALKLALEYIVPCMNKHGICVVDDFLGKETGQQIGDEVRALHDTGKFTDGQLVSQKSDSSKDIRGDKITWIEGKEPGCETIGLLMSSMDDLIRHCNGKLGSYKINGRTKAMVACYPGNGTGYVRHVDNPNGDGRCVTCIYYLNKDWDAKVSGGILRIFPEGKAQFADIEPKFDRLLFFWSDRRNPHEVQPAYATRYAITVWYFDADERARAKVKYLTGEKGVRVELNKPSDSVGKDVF

[12] = Apparent volume of distribution in Sprague-Dawley rat at 1 mg/kg, iv by LC-MS/MS; assay type: ADME, organism-based; settings: in vivo, read-out: Vz
Mus musculus [13] = assay: Acute toxicity in C57BL/6 mouse assessed as increase in body weight at 25 to 200 mg/kg, po administered every other day for 14 days measured during compound dosing; assay type: organism-based; settings: in vivo, 336 h
Rattus norvegicus [14] = assay: AUC (0 to t) in Sprague-Dawley rat at 1 mg/kg, iv by LC-MS/MS; assay type: ADME, organism-based; settings: in vivo
Mus musculus [15] = assay: Acute toxicity in C57BL/6 mouse assessed as effect on food intake at 25 to 200 mg/kg, po administered every other day for 14 days measured during compound dosing; assay type: organism-based; settings: in vivo, 336 h
[16] = Cmax in Sprague-Dawley rat at 10 mg/kg, po by LC-MS/MS; assay type: ADME, organism-based; set-up: dose 10 mg/kg, route oral; settings: in vivo
[17] = Lipophilicity, log D of the compound at pH 7.4 by potentiometric titration method; assay type: physicochemical; settings: buffer
Rattus norvegicus [18] = assay: AUC (0 to t) in Sprague-Dawley rat at 10 mg/kg, po by LC-MS/MS; assay type: ADME, organism-based; settings: in vivo
Mus musculus [19] = assay: Acute toxicity in C57BL/6 mouse assessed as change in spleen to body weight ratio at 25 to 200 mg/kg, po administered every other day for 14 days measured on day 14 post last dose; assay type: organism-based; settings: in vivo, 336 h
[20] = Effective permeability of the compound at pH 7.4 by PAMPA; assay type: ADME; settings: read-out: Peff
Mus musculus [21] = assay: Toxicity in C57BL/6 mouse assessed as damage in lungs at 25 to 200 mg/kg, po administered every other day for 14 days measured on day 14 post last dose by H and E staining based assay; assay type: organism-based; settings: in vivo, 336 h
Mus musculus [22] = assay: Upregulation of plasma EPO level in C57BL/6 mouse assessed as EPO level at 50 mg/kg, po after 4 hrs by ELISA; assay type: functional
Rattus norvegicus [23] = assay: AUC (0 to infinity) in Sprague-Dawley rat at 10 mg/kg, po by LC-MS/MS; assay type: ADME, organism-based; set-up: dose 10 mg/kg, time infinity, route oral; settings: in vivo
[24] = MRT (0 to infinity) in Sprague-Dawley rat at 1 mg/kg, iv by LC-MS/MS; assay type: ADME, organism-based; settings: in vivo
Rattus norvegicus [25] = assay: AUC (0 to infinity) in Sprague-Dawley rat at 1 mg/kg, iv by LC-MS/MS; assay type: ADME, organism-based; set-up: dose 1 mg/kg, route intravenous, time infinity; settings: in vivo
Mus musculus [26] = assay: Acute toxicity in C57BL/6 mouse assessed as behavioral abnormality at 25 to 200 mg/kg, po administered every other day for 14 days; assay type: organism-based; settings: in vivo, 336 h
Mus musculus [27] = assay: Cardiotoxicity in C57BL/6 mouse at 25 to 200 mg/kg, po administered every other day for 14 days measured on day 14 post last dose by H and E staining based assay; assay type: toxicity, organism-based; settings: in vivo, 336 h
L02 = assay: Cytotoxicity against human L02 cells assessed as reduction in cell viability at 10 to 100 uM after 72 hrs by MTT assay; assay type: cell-based; settings: l02, 72 h
[28] = Tmax in Sprague-Dawley rat at 10 mg/kg, po by LC-MS/MS; assay type: ADME, organism-based; settings: in vivo
[29] = Intrinsic aqueous solubility of the compound at pH 7.4 by potentiometric titration method; assay type: physicochemical; settings: buffer
Mus musculus [30] = assay: Antianemic activity in C57BL/6 mouse cisplatin-induced anemia model assessed as increase in hemoglobin level at 10 mg/kg, po administered every other day for 30 days relative to control; assay type: functional
Mus musculus [31] = assay: Acute toxicity in C57BL/6 mouse assessed as apparent signs of toxicity at 25 to 200 mg/kg, po administered every other day for 14 days; assay type: organism-based; settings: in vivo, 336 h
Mus musculus [32] = assay: Hepatotoxicity in C57BL/6 mouse at 25 to 200 mg/kg, po administered every other day for 14 days measured on day 14 post last dose by H and E staining based assay; assay type: toxicity, organism-based; settings: in vivo, 336 h
[33] = Half life in Sprague-Dawley rat at 1 mg/kg, iv by LC-MS/MS; assay type: ADME, organism-based; settings: in vivo
Egl nine homolog 1 [34] = target: T1, Egl nine homolog 1; remark: listed apart in the source
Mus musculus [35] = assay: Acute toxicity in C57BL/6 mouse assessed as change in heart to body weight ratio at 25 to 200 mg/kg, po administered every other day for 14 days measured on day 14 post last dose; assay type: organism-based; settings: in vivo, 336 h
Mus musculus [36] = assay: Acute toxicity in C57BL/6 mouse assessed as change in lungs to body weight ratio at 25 to 200 mg/kg, po administered every other day for 14 days measured on day 14 post last dose; assay type: organism-based; settings: in vivo, 336 h
[37] = MRT (0 to infinity) in Sprague-Dawley rat at 10 mg/kg, po by LC-MS/MS; assay type: ADME, organism-based; settings: in vivo
[38] = Clearance in Sprague-Dawley rat at 1 mg/kg, iv by LC-MS/MS; assay type: ADME, organism-based; settings: in vivo
Rattus norvegicus [39] = assay: Apparent volume of distribution in Sprague-Dawley rat at 10 mg/kg, po by LC-MS/MS; assay type: ADME, organism-based; settings: in vivo
Mus musculus [40] = assay: Acute toxicity in C57BL/6 mouse assessed as change in kidney to body weight ratio at 25 to 200 mg/kg, po administered every other day for 14 days measured on day 14 post last dose; assay type: organism-based; settings: in vivo, 336 h
HEK293 = assay: Cytotoxicity against HEK293 cells assessed as reduction in cell viability at 10 to 100 uM after 72 hrs by MTT assay; assay type: cell-based; settings: human, hek293, 72 h
Hep 3B2 = assay: Cytotoxicity against human Hep3B cells assessed as reduction in cell viability at 10 to 100 uM after 72 hrs by MTT assay; assay type: cell-based; settings: hep 3b2, 72 h

SMILES: O=C(O)CNC(=O)c1ncc(-c2cn(CCCc3ccc(Cl)cc3)nn2)cc1O
Activity (Mus musculus [1]): 96.7%
Activity (Mus musculus [2]): Non-Toxic
selectivity ratio [3]: 10
Activity (HUVEC): Non-Toxic
pKa [4]: 3.21
Activity (Mus musculus [5]): Non-Toxic
CL/F [6]: 31.2 mL/min/kg
Activity (Mus musculus [7]): Non-Toxic
half-life [8]: 3.07 h
Activity (Mus musculus [9]): Non-Toxic
bioavailability [10]: 54.1%
IC50 (Egl nine homolog 1 [11]): 62.2 nM
Vd [12]: 2.31 L/kg
Activity (Mus musculus [13]): Toxic
AUCt (Rattus norvegicus [14]): 923 ng·h/mL
Activity (Mus musculus [15]): Non-Toxic
Cmax [16]: 1550 ng/mL
logD [17]: 2.13
AUCt (Rattus norvegicus [18]): 4990 ng·h/mL
Activity (Mus musculus [19]): Non-Toxic
Papp [20]: 11.5 ×10⁻⁶ cm/s
Activity (Mus musculus [21]): Non-Toxic
Activity (Mus musculus [22]): 1300 pg/mL
AUC (Rattus norvegicus [23]): 5440 ng·h/mL
MRT inf [24]: 0.623 h
AUC (Rattus norvegicus [25]): 933 ng·h/mL
Activity (Mus musculus [26]): Non-Toxic
Activity (Mus musculus [27]): Non-Toxic
Activity (L02): Non-Toxic
Tmax [28]: 0.917 h
solubility [29]: 1180 µg/mL (≈ 2850 µM)
Activity (Mus musculus [30]): 61.9%
Activity (Mus musculus [31]): Non-Toxic
Activity (Mus musculus [32]): Non-Toxic
half-life [33]: 1.51 h
IC50 (Egl nine homolog 1 [34]): 1310 nM
Activity (Mus musculus [35]): Non-Toxic
Activity (Mus musculus [36]): Non-Toxic
MRT inf [37]: 3.28 h
clearance [38]: 19.4 mL/min/kg
Vz (Rattus norvegicus [39]): 8.634 L/kg
Activity (Mus musculus [40]): Non-Toxic
Activity (HEK293): Non-Toxic
Activity (Hep 3B2): Non-Toxic

pKa [4]: 3.15
logD [17]: 3.77
Papp [20]: 12.7 ×10⁻⁶ cm/s
solubility [29]: 255 µg/mL (≈ 725 µM)
SMILES: Cc1nc(C(=O)NCC(=O)O)c(O)c2ccc(Oc3ccccc3)cc12 [ROXADUSTAT]
Activity (Mus musculus [1]): 92.5%
Activity (HUVEC): Non-Toxic
Activity (L02): Non-Toxic
Activity (Mus musculus [30]): 67.7%
Activity (HEK293): Non-Toxic
Activity (Hep 3B2): Non-Toxic

SMILES: O=C(O)CNC(=O)c1ncc(-c2cn(CCc3ccc(Cl)cc3)nn2)cc1O
Activity (HUVEC): Non-Toxic
Activity (L02): Non-Toxic
Activity (HEK293): Non-Toxic
Activity (Hep 3B2): Non-Toxic
